Patent US5385932A, “HMG-COA reductase inhibitor metabolites” (Merck & Co., Inc., priority 1992, dated 1995)

What was measured:
HMG--CoA reductase = target: T1, HMG--CoA reductase (Rattus norvegicus, UniProt P51639); assay: intrinsic HMG-CoA reductase inhibition, in vitro protocol after alkaline hydrolysis of the lactone ring; assay type: biochemical; settings: relative inhibitory potency from IC50 values; lactone ring opened by alkaline hydrolysis; lovastatin (hydroxy acid form) assigned 100
T1 construct: from tissue
T1 sequence (P51639 1-887): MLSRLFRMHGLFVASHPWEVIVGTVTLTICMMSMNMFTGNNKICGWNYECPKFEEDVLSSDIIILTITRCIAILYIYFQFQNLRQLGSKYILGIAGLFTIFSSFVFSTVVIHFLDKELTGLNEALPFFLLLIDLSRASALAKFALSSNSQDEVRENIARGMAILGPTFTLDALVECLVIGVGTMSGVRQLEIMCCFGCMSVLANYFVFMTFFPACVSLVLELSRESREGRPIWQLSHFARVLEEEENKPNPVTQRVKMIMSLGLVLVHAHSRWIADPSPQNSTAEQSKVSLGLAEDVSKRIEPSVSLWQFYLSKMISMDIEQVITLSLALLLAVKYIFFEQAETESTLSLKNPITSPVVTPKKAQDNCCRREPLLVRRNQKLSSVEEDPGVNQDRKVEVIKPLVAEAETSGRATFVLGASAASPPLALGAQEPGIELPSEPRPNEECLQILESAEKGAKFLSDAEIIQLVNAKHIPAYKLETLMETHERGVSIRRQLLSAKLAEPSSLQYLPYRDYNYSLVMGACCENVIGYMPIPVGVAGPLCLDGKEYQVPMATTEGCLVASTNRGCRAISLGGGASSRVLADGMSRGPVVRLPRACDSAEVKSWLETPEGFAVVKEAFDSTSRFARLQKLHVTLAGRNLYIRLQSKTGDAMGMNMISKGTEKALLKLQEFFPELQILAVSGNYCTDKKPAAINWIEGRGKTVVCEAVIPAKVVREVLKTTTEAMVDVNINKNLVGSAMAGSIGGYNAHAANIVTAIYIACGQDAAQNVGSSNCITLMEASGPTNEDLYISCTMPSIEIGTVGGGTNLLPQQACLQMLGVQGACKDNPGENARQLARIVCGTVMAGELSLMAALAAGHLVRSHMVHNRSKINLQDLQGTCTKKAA
Description: After alkaline hydrolysis of the lactone ring the intrinsic HMG--CoA reductase inhibition activity was measured in an vitro protocol based on a method published in Proc. Natl. Acad. Sci. U.S.A. 77, 3957-3961 (1980).
The IC50 value of the test compound was compared with that of its parent determined simultaneously. For estimation of relative inhibitory potencies, lovastatin (in the form of its hydroxy acid) was assigned a value of 100.

[1] = stability of the free dihydroxy acid on standing; assay type: physicochemical; settings: on standing at room temperature; acid form can be maintained by increasing the pH above 7.0
Description: The sodium salt of the compound II from Example 4 is dissolved in 2 ml of ethanol-water (1:1; v:v) and added to 10 ml of 1N hydrochloric acid from which the dihydroxy acid is extracted with ethyl acetate. The organic extract is washed once with water, dried (Na2 SO4), and evaporated in vacuo with a bath temperature not exceeding 30° C. […] The dihydroxy acid form can be maintained by increasing the pH above 7.0.

[2] = incubation of 14C-labelled compound with rat liver microsomes, HPLC analysis of the label; assay type: in vitro ADME; settings: rat liver microsomes with NADPH and MgCl2, pH 7.4, 37°
Description: Rat liver tissue (55.6 g) was homogenized in 0.05M Tris -1.15% KCl buffer at pH 7.5 (100 ml). The homogenates were centrifuged at 10,000 RPM for 20 '. The supernatants were filtered through glass wool and then centrifuged as 100,000 g for 90'. After the supernatant was discarded the pellet was suspended in 10 mM EDTA -1.15% KCl (100 ml) and recentrifuged at 100,000 g for 90 minutes. The supernatant was discarded and the pellet was resuspended in 0.25M sucrose (15 ml). Microsomes were stored at -80° under N2. Protein concentration (as determined by Biuret reaction) was 40 mg/ml of final suspension.
[^14 C] 6(R)-[2-[8(S)-(2,2-dimethylbutyryloxy)-2(S)-methyl-5(R)-hydroxy-6(S)-methyl-1,2,3,4, 4a(R),5,6,7,8,Sa(R)-decahydronaphthyl-1(S)]ethyl]-4(R)-hydroxy-3,4,5,6,-tetrahydro-2H-pyran-2-one (compound A)(40 μg) in 20 λ of DMSO was placed in a tube with rat liver microsomes (1 mg in 100 μl of broth) Mg Cl2 (30 μl of a 0.1M solution), NADPH (50 μl of a 0.01M solution) and phosphate buffer (100 λ of a.1M solution, pH 7.4).
Twenty five such tubes were incubated at 37° in a water bath, for 30 minutes. Acetone (1 ml) was added to each tube, followed by ethyl acetate (5 ml). The ethyl acetate was evaporated and the residue was reconstituted in methanol and fractionated by HPLC. […]

CCC(C)(C)C(=O)O[C@H]1C[C@](C)(O)C[C@@H]2CC[C@H](C)[C@H](CC[C@@H]3C[C@@H](O)CC(=O)O3)[C@H]21 [6(R)-[2-[8(S)-(2,2-dimethylbutyryloxy)-2(S),6(R)-dimethyl-6(R)-hydroxy-1,2,3,4,4a (R),5,6,7,8,8a (R)-decahydronaphthyl-1(S)]ethyl]-4(R)-hydroxy-3,4,5,6-tetrahydro-2H-pyran-2-one]
Potency (Relative to Lovastatin = 100) (HMG--CoA reductase): 2

CCC(C)(C)C(=O)O[C@H]1C[C@](C)(O)[C@@H](O)[C@@H]2CC[C@H](C)[C@H](CC[C@@H]3C[C@@H](O)CC(=O)O3)[C@H]21 [6(R)-[2-[8(S)-(2,2-dimethylbutyryloxy)-2(S)-methyl-5(S),6(S)-dihydroxy-6(S)-methyl-1,2,3,4, 4a (R),5,6,7,8,8a (R)-decahydronaphthyl-1(S)]ethyl]-4(R)-hydroxy-3,4,5,6-tetrahydro-2H-pyran-2-one]
Potency (Relative to Lovastatin = 100) (HMG--CoA reductase): 40

CCC(C)(C)C(=O)O[C@H]1C[C@](C)(O)[C@@H](O)[C@@H]2CC[C@H](C)[C@H](CC[C@@H](O)C[C@@H](O)CC(=O)O)[C@H]21 [Example 10]
stability of dihydroxy acid form (reversion to lactone) [1]: slowly reverts to the corresponding parent lactone

CCC(C)(C)C(=O)O[C@H]1C[C@@H](C)[C@@H](O)[C@@H]2CC[C@H](C)[C@H](CC[C@@H]3C[C@@H](O)CC(=O)O3)[C@H]21 [compound A, 6(R)-[2-[8(S)-(2,2-dimethylbutyryloxy)-2(S)-methyl-5(R)-hydroxy-6(S)-methyl-1,2,3,4, 4a(R),5,6,7,8,Sa(R)-decahydronaphthyl-1(S)]ethyl]-4(R)-hydroxy-3,4,5,6,-tetrahydro-2H-pyran-2-one]
remaining at 0.5 h ([2]; 30 minutes, ethyl acetate extract, read-out: label representing unchanged starting material): 52%

CCC(C)(C)C(=O)O[C@H]1C[C@@H](C)C[C@@H]2CC[C@H](C)[C@H](CC[C@@H]3C[C@@H](O)CC(=O)O3)[C@H]21 [compound B, 6(R)-[2-[8(S)-(2,2-dimethylbutyryloxy)-2(S),6(R)-dimethyl-1,2,3,4,4a(R),5,6,7,8, 8a(R)-decahydronaphthyl-1(S)]ethyl]-4(R)-hydroxy-3,4,5,6-tetrahydro-2H-pyran-2-one]
remaining at 1 h ([2]; 60 minutes, methyl-t.butyl ether extract, read-out: label in the extract that was unchanged starting material): 66%
